Values of other authors as cited in paper PMC9880028 (Drug Design, Development and Therapy, 2023).

System: WNK1
Settings: read-out: IC50 (WNK1); only WNK1 inhibitor published when the screen was conducted; ref US Patent application US 2008/0286809 A1, Dario Alessi

IC50: 200 µM
Compound: Cc1cc(O)c2c(=O)c3c(O)cc(O)c4c5c(O)cc(O)c6c(=O)c7c(O)cc(C)c8c1c2c(c34)c(c78)c65 [hypericin]
